Data reported in patent US20050239656A1, “Pyridine compounds or salts thereof and herbicides containing the same” (priority 2002, published 2005).

What was measured:
velvetleaf [1] = assay: Test Example 2: soil surface treatment, upland pot test; format: in vivo, Abutilon theophrasti MEDIC.
Procedure, shortened: (§1)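 Soil surface treated 1 day post-sowing. Formulation: WP or EC, predetermined a.i., diluted to 1,500 L/ha. Pot size 1/170,000 ha, upland soil. Readout: visual % control, 0 = non-treated, 100 = dead, days 20–28.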

green foxtail [2] = assay: Test Example 1: foliage treatment, upland pot test; format: in vivo, Setaria viridis L.; settings: active ingredient 1000 g/ha, observed 18th to 23rd day, 0 = non-treated, 100 = complete kill
Description: (§2) Upland field soil was put into a 1/170,000 ha pot, and seed of various plants were sown. Then, when the plants reached predetermined leaf stages ((1) barnyardgrass: 1.3 to 2.8 leaf stages, (2) crabgrass: 1.0 to 2.8 leaf stages, (3) green foxtail: 1.3 to 2.6 leaf stages, (4) redroot pigweed: 0.1 to 1.2 leaf stages, (5) prickly sida: 0.1 to 1.2 leaf stages, (6) velvetleaf: 0.1 to 1.2 leaf stages, (7) tall morningglory: 0.1 to 1.5 leaf stages, (8) rice: 1.2 to 2.6 leaf stages, (9) wheat: 1.3 to 2.4 leaf stages, (10) corn, 2.1 to 3.2 leaf stages, (11) soybean: 0.1 to 0.4 leaf stage), a wettable powder or emulsifiable concentrate having the compound of the present invention formulated in accordance with a usual formulation method, was weighed so that the active ingredient would be a predetermined amount, and diluted with water in an amount of 500 L/ha. To the diluted solution, 0.1% (v/v) of agricultural spreader was added. The herbicide thus adjusted was applied by a small size sprayer for foliage treatment. On the 18th to 23rd days after the application of the herbicide, the growth of the respective plants was visually observed, and the herbicidal effects were evaluated by the growth controlling degrees (%) ranging from 0 (equivalent to the non-treated plot) to 100 (complete kill), whereby the results shown in Table 3, were obtained.

soybean [3] = assay: Test Example 1: foliage treatment, upland pot test; format: in vivo, Glycine max Merr.; settings: crop, active ingredient 1000 g/ha, observed 18th to 23rd day, 0 = non-treated, 100 = complete kill
Description: as §2

corn [4] = assay: Test Example 2: soil surface treatment, upland pot test; format: in vivo, Zea mays L.
Procedure, shortened: as §1

japanese ribbon wapato = assay: Test Example 3: paddy pot test, application under submerged conditions; format: in vivo, Sagittaria pygniaea; settings: submerged application at primary leaf stage, visually observed 14 days after application, 0 = non-treated, 100 = complete kill
Procedure, shortened: (§3)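 Paddy soil pots; seeds sown, lightly covered; flooded 0.5–1 cm in greenhouse; wapato tubers planted day 1–2; flood raised to 3–4 cm. Submerged pipette application at 0.5 leaf / primary leaf stage. Visual score day 14, 0–100%.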

barnyardgrass [5] = assay: Test Example 1: foliage treatment, upland pot test; format: in vivo, Echinochloa crus-galli L.; settings: active ingredient 1000 g/ha, observed 18th to 23rd day, 0 = non-treated, 100 = complete kill
Description: as §2

crabgrass = assay: Test Example 2: soil surface treatment, upland pot test; format: in vivo, Digitaria sanguinalis L.
Procedure, shortened: as §1

prickly sida [6] = assay: Test Example 1: foliage treatment, upland pot test; format: in vivo, Sida spinosa L.; settings: active ingredient 1000 g/ha, observed 18th to 23rd day, 0 = non-treated, 100 = complete kill
Description: as §2

green foxtail [7] = assay: Test Example 2: soil surface treatment, upland pot test; format: in vivo, Setaria viridis L.
Procedure, shortened: as §1

rice [8] = assay: Test Example 1: foliage treatment, upland pot test; format: in vivo, Oryza sativa L.; settings: crop, active ingredient 1000 g/ha, observed 18th to 23rd day, 0 = non-treated, 100 = complete kill
Description: as §2

japanese bulrush = assay: Test Example 3: paddy pot test, application under submerged conditions; format: in vivo, Scirpus juncoides; settings: submerged application at 0.5 leaf stage, visually observed 14 days after application, 0 = non-treated, 100 = complete kill
Procedure, shortened: as §3

velvetleaf [9] = assay: Test Example 1: foliage treatment, upland pot test; format: in vivo, Abutilon theophrasti MEDIC.; settings: active ingredient 1000 g/ha, observed 18th to 23rd day, 0 = non-treated, 100 = complete kill
Description: as §2

soybean [10] = assay: Test Example 2: soil surface treatment, upland pot test; format: in vivo, Glycine max Merr.
Procedure, shortened: as §1

rice [11] = assay: as above; format: in vivo, Oryza sativa L.
Procedure, shortened: as §1

barnyardgrass [12] = assay: as above; format: in vivo, Echinochloa crus-galli L.
Procedure, shortened: as §1

redroot pigweed [13] = assay: as above; format: in vivo, Amaranthus retroflexus L.
Procedure, shortened: as §1

corn [14] = assay: Test Example 1: foliage treatment, upland pot test; format: in vivo, Zea mays L.; settings: crop, active ingredient 1000 g/ha, observed 18th to 23rd day, 0 = non-treated, 100 = complete kill
Description: as §2

prickly sida [15] = assay: Test Example 2: soil surface treatment, upland pot test; format: in vivo, Sida spinosa L.
Procedure, shortened: as §1

rice (var. Nihonbare) = assay: Test Example 3: paddy pot test, transplanted rice; format: in vivo, Oryza sativa L.; settings: applied 4th day after transplantation, visually observed 21st day after application, 0 = non-treated, 100 = complete kill
Procedure, shortened: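 Visual crop-injury rating (0 = as untreated, 100 = complete kill, %) taken 21 days post-application. Treatment: formulated compound, water-diluted, pipetted into 3–4 cm flood water at a preset active-ingredient dose, 4 days after transplanting 2-leaf Nihonbare rice 3 cm deep in puddled paddy soil.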

redroot pigweed [16] = assay: Test Example 1: foliage treatment, upland pot test; format: in vivo, Amaranthus retroflexus L.; settings: active ingredient 1000 g/ha, observed 18th to 23rd day, 0 = non-treated, 100 = complete kill
Description: as §2

barnyardgrass [17] = assay: Test Example 3: paddy pot test, application under submerged conditions; format: in vivo, Echinochloa crus-galli L.; settings: submerged application at 0.5 leaf stage, visually observed 14 days after application, 0 = non-treated, 100 = complete kill
Procedure, shortened: as §3

[18] = active ingredient 250 g/ha, observed 20th to 28th day
[19] = active ingredient 500 g/ha, observed 20th to 28th day
[20] = active ingredient 500 g/ha, observed day 21, 0 = non-treated, 100 = complete kill

Structure (SMILES) | Growth controlling degree (%) Soybean (soybean [3]) | Growth controlling degree (%) Barnyardgrass (barnyardgrass [5]) | Growth controlling degree (%) Prickly sida (prickly sida [6]) | Growth controlling degree (%) Rice (rice [8]) | Growth controlling degree (%) Velvetleaf (velvetleaf [9]) | Growth controlling degree (%) Corn (corn [14]) | Growth controlling degree (%) Redroot pigweed (redroot pigweed [16]) | Growth controlling degree (%) Velvetleaf (velvetleaf [1]; [19]) | Growth controlling degree (%) Corn (corn [4]; [19]) | Growth controlling degree (%) Japanese ribbon wapato (japanese ribbon wapato; active ingredient 250 g/ha) | Growth controlling degree (%) Crabgrass (crabgrass; [19]) | Growth controlling degree (%) Green foxtail (green foxtail [7]; [19]) | Growth controlling degree (%) Barnyardgrass (barnyardgrass [17]; active ingredient 250 g/ha) | Growth controlling degree (%) Japanese bulrush (japanese bulrush; active ingredient 250 g/ha) | Growth controlling degree (%) Soyabean (soybean [10]; [19]) | Growth controlling degree (%) Rice (rice [11]; [19]) | Growth controlling degree (%) Barnyardgrass (barnyardgrass [12]; [19]) | Growth controlling degree (%) Redroot pigweed (redroot pigweed [13]; [19]) | Growth controlling degree (%) Prickly sida (prickly sida [15]; [19]) | Growth controlling degree (%) Rice (rice (var. Nihonbare); active ingredient 250 g/ha) | further results
CC(C)C(c1cnccc1C(F)(F)F)N(C)C(=O)Cc1ccccc1Cl (stereo not shown) [I-26] | 50% | 90% | 80% | 30% | 80% | 30% | 90% |  |  |  |  |  |  |  |  |  |  |  |  |  | Growth controlling degree (%) Velvetleaf (velvetleaf [1]; [18]): 80%; Growth controlling degree (%) Green foxtail (green foxtail [2]): 70%; Growth controlling degree (%) Corn (corn [4]; [18]): 40%; Growth controlling degree (%) Japanese ribbon wapato (japanese ribbon wapato; active ingredient 500 g/ha): 10%; Growth controlling degree (%) Crabgrass (crabgrass; [18]): 80%; Growth controlling degree (%) Green foxtail (green foxtail [7]; [18]): 80%; Growth controlling degree (%) Japanese bulrush (japanese bulrush; active ingredient 500 g/ha): 90%; Growth controlling degree (%) Soyabean (soybean [10]; [18]): 0%; Growth controlling degree (%) Rice (rice [11]; [18]): 10%; Growth controlling degree (%) Barnyardgrass (barnyardgrass [12]; [18]): 80%; Growth controlling degree (%) Redroot pigweed (redroot pigweed [13]; [18]): 70%; Growth controlling degree (%) Prickly sida (prickly sida [15]; [18]): 70%; Growth controlling degree (%) Rice (rice (var. Nihonbare); active ingredient 500 g/ha): 20%
CC(C)C(c1cnccc1Cl)N(C)C(=O)Cc1ccc(F)c(F)c1 (stereo not shown) [I-73] | 70% | 40% | 85% | 30% | 90% | 0% | 60% |  |  |  |  |  |  |  |  |  |  |  |  |  | Growth controlling degree (%) Japanese ribbon wapato (japanese ribbon wapato; active ingredient 125 g/ha): 20%; Growth controlling degree (%) Barnyardgrass (barnyardgrass [17]; active ingredient 125 g/ha): 98%; Growth controlling degree (%) Japanese bulrush (japanese bulrush; active ingredient 125 g/ha): 90%; Growth controlling degree (%) Rice (rice (var. Nihonbare); active ingredient 125 g/ha): 0%
CC(C)C(c1cnccc1Cl)N(C)C(=O)Cc1cccc(C(F)(F)F)c1F (stereo not shown) [I-74] | 30% | 50% | 80% | 20% | 90% | 30% | 60% |  |  |  |  |  |  |  |  |  |  |  |  |  | 
CCN(C(=O)Cc1cccc(C(F)(F)F)c1)C(c1cnccc1C(F)(F)F)C(C)C (stereo not shown) [I-75] | 30% | 70% | 80% | 20% | 90% | 10% | 60% | 70% | 10% | 40% | 100% | 100% | 100% | 70% | 0% | 0% | 100% | 40% | 80% | 0% | 
CCN(C(=O)Cc1cccc(C(F)(F)F)c1F)C(c1cnccc1C(F)(F)F)C(C)C (stereo not shown) [I-76] | 70% | 80% | 70% | 40% | 90% | 95% | 80% | 50% | 0% | 60% | 98% | 100% | 100% | 100% | 0% | 10% | 70% | 70% | 100% | 10% | 
CCN(C(=O)COc1ccccc1)C(c1cnccc1C(F)(F)F)C(C)C (stereo not shown) [I-259] |  |  |  |  |  |  |  |  |  | 90% |  |  | 98% | 70% |  |  |  |  |  | 40% | Growth controlling degree (%) Velvetleaf (velvetleaf [1]; [20]): 10%; Growth controlling degree (%) Corn (corn [4]; [20]): 30%; Growth controlling degree (%) Crabgrass (crabgrass; [20]): 75%; Growth controlling degree (%) Green foxtail (green foxtail [7]; [20]): 98%; Growth controlling degree (%) Soyabean (soybean [10]; [20]): 0%; Growth controlling degree (%) Rice (rice [11]; [20]): 10%; Growth controlling degree (%) Barnyardgrass (barnyardgrass [12]; [20]): 70%; Growth controlling degree (%) Redroot pigweed (redroot pigweed [13]; [20]): 50%; Growth controlling degree (%) Prickly sida (prickly sida [15]; [20]): 40%
